According to patent publication US20080181940A1, “Method For Accelerating Expression of CPT-1” (Amorepacific Corporation, priority 2003, published 2008):

Assays:
[1] = test system: obesity induced by high fat diet; test: Weight of epididymal adipose tissue of rats after 8 weeks of high fat diet; format: in vivo, Sprague-Dawley white male rat; settings: for Weight of epididymal adipose: after 8 weeks, high fat diet + 0.2% of each substance in diet, n = 12; for weight of epididymal adipose compared with control group with high fat diet: words, 0.2% in high fat diet, 8 weeks
From the text: In order to verify the effects of the present composition to the metabolism of lipid in the fat animals induced by dieting high fat diet, Sprague-Dawley white male rat model was selected. In order to verify the effects of genistein, diadzein and glycitein to the obesity induced from high fat diet, rats of 6 weeks old were adapted for a week and assigned 12 rats for each experimental group. Experimental groups are as follows: (1) normal fat diet; (2) high fat diet; (3) high fat diet+genistein 0.2%; (4) high fat diet+L-carnitine 0.2%; (5) high fat diet+genistein 0.2%+L-carnitine 0.2%; (6) high fat diet+diadzein 0.2%; (7) high fat diet+diadzein 0.2%+L-carnitine 0.2%; (8) high fat diet+glycitein 0.2%; and (9) high fat diet+glycitein 0.2%+L-carnitine 0.2%, and the rats were dieted for 8 weeks. Basic experimental diet was purified AIN-93G diet, and high fat diet was prepared to have fat occupy 36% of the total energy (18% of the total diet), normal fat diet was prepared to have fat occupy 17% of the total energy (7% of the total diet).
After 8 weeks of dieting with the groups of normal fat diet, high fat diet, high fat diet+genistein (0.2%), high fat diet+L-carnitine (0.2%), high fat diet+genistein (0.2%)+L-carnitine (0.2%), high fat diet+diadzein (0.2%), high fat diet+diadzein (0.2%)+L-carnitine (0.2%), high fat diet+glycitein (0.2%) and high fat diet+glycitein (0.2%)+L-carnitine (0.2%), the rats were sacrificed to obtain epididymal adipose tissues. The above obtained epididymal adipose tissues were washed with saline and moistures were removed on a filter bed, then weights were measured.

[2] = test system: obesity induced by high fat diet; test: Body weight and food consumption of rats on high fat diet, 8 weeks of dieting; format: in vivo, Sprague-Dawley white male rat; settings: for Body weight after dieting: after 8 weeks, high fat diet + 0.2% of each substance in diet, n = 12; for increase of body weight compared with control group with high fat diet: words, 0.2% in high fat diet, 8 weeks
From the text: In order to verify the effects of the present composition to the metabolism of lipid in the fat animals induced by dieting high fat diet, Sprague-Dawley white male rat model was selected. In order to verify the effects of genistein, diadzein and glycitein to the obesity induced from high fat diet, rats of 6 weeks old were adapted for a week and assigned 12 rats for each experimental group. Experimental groups are as follows: (1) normal fat diet; (2) high fat diet; (3) high fat diet+genistein 0.2%; (4) high fat diet+L-carnitine 0.2%; (5) high fat diet+genistein 0.2%+L-carnitine 0.2%; (6) high fat diet+diadzein 0.2%; (7) high fat diet+diadzein 0.2%+L-carnitine 0.2%; (8) high fat diet+glycitein 0.2%; and (9) high fat diet+glycitein 0.2%+L-carnitine 0.2%, and the rats were […] for 8 weeks. […] The amount of diet consumed and body weight was measure three times per week during dieting.

[3] = test system: adipocytes of male SD rat; test: Acceleration of oxidation of neutral fat in adipocytes (glycerol released into the medium); format: cell-based; settings: added in 10 μmol unit, control = 100%, FIG. 1
Method: Epididymal adipose tissues obtained from male SD rat were cut to small pieces, and 0.1% of collagenase (in DMEM without phenol red) was added then cultured for 2 hours at 37° C., and then filtered to obtain adipocyte.
A control was cultured in a medium not containing the composition of the present invention (experimental material). In the experimental samples, genistein and/or L-carnitine was added in 10 μmol unit. Results are calculated relatively converting the control to be 100%. Degrees of oxidation of fats are determined by measuring the concentration of glycerol separated into the medium from the adipocytes.
Experiments were performed by taking cell cultures prepared by adding colorless DMEM (Dulbeco's modified eagles medium) containing 0.5% bovine serum albumin (BAS) without fatty acid to the adipocytes. The amount of glycerol was measured with color reaction method using GPO-trinder kit purchased from Sigma (St. Louis, Mo., U.S.A) and absorption in 540 nm was measured with ELISA reader.

[4] = cited from earlier work
[5] = test system: CPT-1; test: Expression of CPT-1 mRNA in liver by northern blotting and densitometry; format: in vivo, rat; settings: 8 weeks
From the text: After 8 weeks of dieting with following four (4) groups of high fat diet, high fat diet+genistein (0.2%), high fat diet+genistein (0.2%)+L-carnitine (0.2%) and high fat diet+genistein (0.4%), the rats were sacrificed to obtain liver tissues thereof. After homogenizing the liver tissues, RNA were extracted from the tissues using TRIZOL (Life Technologies, grand Island, N.Y., USA) consisting of phenol and guanidine isothiocyanate. Degree of expression of CPT-1 mRNA from the above extracted RNA was measured by northern blotting test, and expressed quantitatively by densitometry as shown in FIGS. 2a and 2b.

SMILES	Weight of epididymal adipose [1]	weight of epididymal adipose compared with control group with high fat diet [1]	Body weight after dieting [2]	increase of body weight compared with control group with high fat diet [2]	oxidation of fatty acids increased compared with that of the control [3]	side effects of an excessive quantity, female rats ([4]; female rats)	side effects of an excessive quantity, male rats ([4]; male rats)	expression of CPT-1 compared with the group of high fat diet ([5]; 0.2% of each substance in high fat diet, FIG. 2b)	dependence of the expression of CPT-1 on concentration ([5]; genistein 0.2% vs 0.4% in high fat diet)
C[N+](C)(C)CC(O)CC(=O)[O-] [L-carnitine, β-hydroxy-γ-trimethylammonium butyric acid]	7.9 ± 0.45 g	almost the same	465.1 ± 31.8 g	almost the same	2.07 times				
O=c1c(-c2ccc(O)cc2)coc2cc(O)cc(O)c12 [genistein]	5.2 ± 0.67 g	small	433.5 ± 19.4 g	small	1.92 times	disorder of secretion	reduction of spermatozoa and sperm	increased	increases positively according to the concentration of genistein
O=c1c(-c2ccc(O)cc2)coc2cc(O)ccc12 [diadzein]	6.1 ± 0.35 g	also small	441.3 ± 19.4 g	also small					
COc1cc2c(=O)c(-c3ccc(O)cc3)coc2cc1O [glycitein]	6.3 ± 0.41 g	also small	446.4 ± 21.6 g	also small					
